Assay results taken from patent publication US20250161408A1, “PEPTIDIC INHIBITORS OF AMYLOID SELF- AND CROSS-ASSEMBLY” (TECHNISCHE UNIVERSITÄT MÜNCHEN, priority 2022, published 2025).
“Also recorded” adds a separate entry of the source. Blank lines part the entries; values can stand above or below the compound they belong to. Non-standard residues stand in square brackets, D forms with d. Residues, ends and D or L forms follow the SMILES beside them. NMeF = CN[C@@H](Cc1ccccc1)C(=O)O; NMeV = CN[C@H](C(=O)O)C(C)C; Nle = CCCC[C@H](N)C(=O)O

Key:
fIAPP = target: T1, fIAPP (Homo sapiens, UniProt P10997); assay: Dot blot binding of Fluos-peptides to fIAPP; conditions: Fluos-peptides 0.2 μM
T1 construct: made in house; host or cells: chemical synthesis (Fmoc-SPPS), air-oxidised, RP-HPLC purified
T1 sequence (P10997 34-70 limits assumed): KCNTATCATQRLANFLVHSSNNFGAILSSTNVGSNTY
Protocol: After blocking (5% milk in TBS-T, 2 h, RT) and several washing steps (with TBS-T and ThT buffer), membranes were incubated with N-terminal fluorescein-labeled ACMs (Fluos-ACMs) at 0.2 μM for IAPP-related membranes or 2 μM for Aβ42-related membranes; incubation was overnight (10° C.) in ThT buffer (containing 1% HFIP). To control for fibril autofluorescence, similar membranes were incubated in parallel with buffer only. Bound peptides were visualized using a LAS-400 mini instrument (Fujifilm) equipped with a suitable fluorescence filter.

IAPP = target: T2, IAPP (Homo sapiens, UniProt P10997); assay: MTT reduction assay of IAPP-mediated cell damage in RIN5fm cells; type: cell-based
T2 construct: made in house; host or cells: chemical synthesis (Fmoc-SPPS), air-oxidised, RP-HPLC purified
T2 sequence (P10997 34-70 limits assumed): T1 sequence (P10997 34-70 limits assumed)
Protocol: Briefly, cells were cultivated and platted in 96-well plates. Aliquots of solutions used for the ThT binding assays (see “ThT binding assays”) were diluted with cell medium at the indicated incubation time points (24 h or 7 days) and added to the cells at the indicated final concentrations. Following incubation with the cells for ˜20 h (37° C., humidified atmosphere, 5% CO2) cell damage was assessed by measuring cellular MTI reduction. IC50 values were determined.

Aβ42 [1] = target: T3, Aβ42 (Homo sapiens, UniProt P05067); assay: cell-based; conditions: read-out: IC50 (±SD) of inhibitory effects of ACMs on Aβ42-mediated cell damage
T3 construct: the 40(42)-residue peptide Aβ40(42); made in house; host or cells: chemical synthesis (Fmoc-SPPS), monomer isolated by SEC
Protocol: Following incubation with the cells for ˜20 h (37° C., humidified atmosphere, 5% CO2), cell damage was assessed by measuring cellular MTT reduction.
Solutions were aged for 1.5 h (37° C., shaking 500 rpm). Aliquots were diluted with cell medium, incubated with PC12 cells at the indicated final concentrations for ˜20 h and cellular MTT reduction was measured as above.

Aβ42 [2] = target: T3, Aβ42; assay: Fluorescence spectroscopic titration of FITC-Aβ42 with ACMs; conditions: read-out: app. KD (±SD) of ACM/Aβ42 interactions; N-terminal FITC-labelled Aβ42 5 nM, pH 7.4; means from three binding curves
Protocol: Fluorescence spectroscopic studies were performed with a Jasco FP-6500 fluorescence spectrophotometer. Briefly, excitation was at 492 nm and spectra were measured between 500 and 600 nm. All titrations were performed in freshly made solutions of synthetic N-terminal fluorescently labeled peptide (5 nM) and various amounts of unlabeled peptide in 10 mM sodium phosphate buffer, pH 7.4 (1% HFIP) within 2-5 min following solution preparation. Under these experimental conditions, freshly made solutions of Fluos-IAPP and FITC-Aβ42 (5 nM) consist mostly of monomers and the same was found for Fluos-ACMs (5 nM) (FIG. 13e and data not shown). Apparent binding affinities (app. KDs) were estimated by using 1/1 binding models. However, due to the high self-assembly propensities of involved peptides more complex models might also apply. Determined app. KDs are means (±SD) from three binding curves derived from three independent titration assays.

Aβ42 [3] = target: T3, Aβ42; assay: ThT binding assay of Aβ42 fibrillogenesis (self-assembly, seeding, cross-seeding); type: biochemical
Protocol: Aβ42 fibrillogenesis-related studies. […] Peptide incubations were performed in the presence of ThT in 96-well black MTPs (FluoroNunc, Thermo Fisher Scientific). […] Values of seeds or buffer alone were subtracted from the data in self-/cross-seeding assays; all other data shown are raw data except for data in FIG. 27b which were normalized).
Incubations (37° C.) and determination of ThT fluorescence were performed as for all other Aβ42-related studies.

[4] = system: cultured murine BV2 microglia; assay: Phagocytosis of Aβ42 species with or without ACM; type: cell-based, mouse; conditions: 1/1, co-incubation 2 h
Protocol: Briefly, BV2 cells were maintained in GlutaMAX-supplemented RPMI1640 medium containing 10% FBS and 1% penicillin/streptomycin on poly-L-ornithine-coated flasks. For the phagocytosis assay, BV2 cells were seeded into 24-well plates containing coverslips in serum-free RPMI1640-GlutaMAX and further incubated for 24 h (5% CO2, 37° C.) to reach 10000 cells/well. Primary BMDMs were obtained from bone-marrow monocytes isolated from wildtype C57BL/6 mice, plated in 24-well plates at a density of 10000cells/well, and differentiated with L929 cell-conditioned medium (RPMI1640, 10% FBS, 1% penicillin/streptomycin) for 7 days. Thereafter, cells were incubated with aged peptide solutions at 37° C. for 6 h. […]
Following incubation of the cells with the peptides, supernatants were removed and cells on the coverslips were washed 5 times with ice-cold 1×PBS, fixed with 4% paraformaldehyde, washed with 1×PBS, permeabilized with 0.2% Triton-X 100, and rinsed three times with cold 1×PBS. […] Images were acquired using a Leica DMi8 fluorescence microscope. The percentage of cells that had taken up peptides was calculated by dividing the number of BV2 cells or BMDMs that phagocytosed TAMRA-labeled peptide by the total cell count, multiplied by 100. Significance was analyzed by unpaired student's t-test.

proteinase K = assay: Proteinase K (PK) fibril digestion assay with dot blot; conditions: IAPP-related fibrils; 37° C.; dot blot with anti-fIAPP and anti-Aβ antibodies
Protocol: Solutions made as above but w/o PK were used as controls for 100% undigested fibrils. Solutions were incubated at 37° C. and at indicated time points aliquots were dotted onto nitrocellulose membranes and spots were quickly dried by air. Membranes were washed (TBS-T) and blocked (5% milk in TBS-T, overnight (10° C.)). […] Primary antibodies were combined with goat anti-mouse-POD (1:1000) or donkey anti-rabbit-POD (1:5000); detection was as under “Cross-linking, NuPAGE and WB”.

T3 sequence (P05067 672-713): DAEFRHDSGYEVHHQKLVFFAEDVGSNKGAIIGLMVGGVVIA

- Binding to fIAPP (dot blot) (fIAPP): bind fIAPP
Compound: QKL(N-Me)VF(N-Me)FAED - Val-Gly-Ser - NKGAIIGLNleVGGVV (H-QKL[NMeV]F[NMeF]AEDVGSNKGAIIGL[Nle]VGGVV-OH; SMILES CCCC[C@H](NC(=O)[C@H](CC(C)C)NC(=O)CNC(=O)[C@@H](NC(=O)[C@@H](NC(=O)[C@H](C)NC(=O)CNC(=O)[C@H](CCCCN)NC(=O)[C@H](CC(N)=O)NC(=O)[C@H](CO)NC(=O)CNC(=O)[C@@H](NC(=O)[C@H](CC(=O)O)NC(=O)[C@H](CCC(=O)O)NC(=O)[C@H](C)NC(=O)[C@H](Cc1ccccc1)N(C)C(=O)[C@H](Cc1ccccc1)NC(=O)[C@H](C(C)C)N(C)C(=O)[C@H](CC(C)C)NC(=O)[C@H](CCCCN)NC(=O)[C@@H](N)CCC(N)=O)C(C)C)[C@@H](C)CC)[C@@H](C)CC)C(=O)N[C@H](C(=O)NCC(=O)NCC(=O)N[C@H](C(=O)N[C@H](C(=O)O)C(C)C)C(C)C)C(C)C) [VGS-VF]

- Kd (Aβ42 [2]): 14.5 ± 8 nM
Compound: CCCC[C@H](NC(=O)[C@H](CC(=O)O)NC(=O)[C@H](CCC(=O)O)NC(=O)[C@H](C)NC(=O)[C@H](Cc1ccccc1)N(C)C(=O)[C@H](Cc1ccccc1)NC(=O)[C@H](C(C)C)N(C)C(=O)[C@H](CC(C)C)NC(=O)[C@H](CCCCN)NC(=O)[C@@H](N)CCC(N)=O)C(=O)N[C@@H](CCCC)C(=O)N[C@@H](CCCC)C(=O)N[C@@H](CC(N)=O)C(=O)N[C@@H](CCCCN)C(=O)NCC(=O)N[C@@H](C)C(=O)N[C@H](C(=O)N[C@H](C(=O)NCC(=O)N[C@@H](CC(C)C)C(=O)N[C@@H](CCCC)C(=O)N[C@H](C(=O)NCC(=O)NCC(=O)N[C@H](C(=O)N[C@H](C(=O)O)C(C)C)C(C)C)C(C)C)[C@@H](C)CC)[C@@H](C)CC [Nle3-VF] (H-QKL[NMeV]F[NMeF]AED[Nle][Nle][Nle]NKGAIIGL[Nle]VGGVV-OH)
- Effect of addition to preformed fIAPP on fIAPP cytotoxicity (MTT reduction) (IAPP; RIN5fm cells, ACM 33 μM added to fIAPP […], 1 day, fIAPP 500 nM): does not affect fIAPP cytotoxicity
- Effect on formation of cytotoxic IAPP assemblies (MTT reduction) (IAPP; RIN5fm cells, aged (24 h or 7 days) IAPP/peptide 1/2 solutions): fully suppressed; also recorded: suppress formation of toxic IAPP assemblies
- IC50 (IAPP; read-out: IC50 (±SD) of inhibitory effects of ACMs on IAPP-mediated cell damage): 65 nM
- IC50 (Aβ42 [1]): 367 nM
- Effect of addition to preformed toxic Aβ42 oligomers on fibrillogenesis (ThT binding) (Aβ42 [3]; 2 h-aged Aβ42, 1/1): delay of fibrillogenesis
- Effect of addition to already nucleated Aβ42 fibrillogenesis (ThT binding) (Aβ42 [3]; Aβ42 5 μM, post-nucleation addition): does not affect amounts of already formed ThT-positive fibrils
- Effect of addition to TAMRA-oAβ42 on Aβ42 phagocytosis [4]: increased Aβ42 phagocytosis

Compound: CC[C@H](C)[C@H](NC(=O)[C@H](C)NC(=O)CNC(=O)[C@H](Cc1ccccc1)NC(=O)[C@H](CC(N)=O)NC(=O)[C@H](CC(N)=O)NC(=O)[C@H](CO)NC(=O)[C@H](CO)NC(=O)[C@H](Cc1c[nH]cn1)NC(=O)[C@@H](NC(=O)[C@H](CC(C)C)NC(=O)[C@H](Cc1ccccc1)NC(=O)[C@H](CC(N)=O)NC(=O)[C@H](C)NC(=O)[C@H](CC(C)C)NC(=O)[C@H](CCCNC(=N)N)NC(=O)[C@H](CCC(N)=O)NC(=O)[C@@H](NC(=O)[C@H](C)NC(=O)[C@@H]1CSSC[C@H](NC(=O)[C@@H](N)CCCCN)C(=O)N[C@@H](CC(N)=O)C(=O)N[C@@H]([C@@H](C)O)C(=O)N[C@@H](C)C(=O)N[C@@H]([C@@H](C)O)C(=O)N1)[C@@H](C)O)C(C)C)C(=O)N[C@@H](CC(C)C)C(=O)N[C@@H](CO)C(=O)N[C@@H](CO)C(=O)N[C@H](C(=O)N[C@@H](CC(N)=O)C(=O)N[C@H](C(=O)NCC(=O)N[C@@H](CO)C(=O)N[C@@H](CC(N)=O)C(=O)N[C@H](C(=O)N[C@@H](Cc1ccc(O)cc1)C(N)=O)[C@@H](C)O)C(C)C)[C@@H](C)O [IAPP]
- Time to degradation by proteinase K (proteinase K): at least 30 h
